Experimental data taken from US9540391B2, “Isomannide derivatives as inhibitors of soluble epoxide hydrolase” (SANOFI, priority 2013, dated 2017).
Structures can show the parent of a compound that is named as a salt.

target: T1, recombinant sEH (Homo sapiens, UniProt P34913); assay: biochemical screening assay for inhibition of soluble epoxide hydrolase (fluorometric, Phome substrate)
T1 construct: made in house; host or cells: Sf9 insect cells
T1 sequence (P34913 1-555): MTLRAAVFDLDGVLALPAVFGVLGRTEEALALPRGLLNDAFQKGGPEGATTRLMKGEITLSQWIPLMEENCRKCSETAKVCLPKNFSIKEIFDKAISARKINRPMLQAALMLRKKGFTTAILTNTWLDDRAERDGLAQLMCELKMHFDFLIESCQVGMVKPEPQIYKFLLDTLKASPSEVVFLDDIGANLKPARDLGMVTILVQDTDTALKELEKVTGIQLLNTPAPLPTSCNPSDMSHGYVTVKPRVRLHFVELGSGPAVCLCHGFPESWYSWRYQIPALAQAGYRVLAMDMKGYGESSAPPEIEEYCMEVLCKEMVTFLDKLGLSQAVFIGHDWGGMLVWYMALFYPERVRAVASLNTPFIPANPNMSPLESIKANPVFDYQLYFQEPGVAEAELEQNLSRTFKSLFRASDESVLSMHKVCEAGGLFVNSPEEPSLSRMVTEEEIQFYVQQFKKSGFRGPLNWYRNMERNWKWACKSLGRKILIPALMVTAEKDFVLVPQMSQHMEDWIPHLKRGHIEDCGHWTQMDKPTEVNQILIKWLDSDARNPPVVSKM
Summary of the method: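 Reading fluorescence before substrate addition and after completion corrected for autofluorescence. Reaction: 5 μM Phome, 2 nM recombinant human sEH (Sf9-expressed), compound 0.0001–10 μM, 25 mM Hepes with 0.01% albumin, 15 min pre-incubation then 60 min at 30 °C; IC50 derived from % inhibition.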

SMILES	IC50
Cc1ncccc1O[C@H]1CO[C@H]2[C@@H]1OC[C@@H]2NC(=O)NC1CCCN(C(=O)C(C)(C)C)C1 (stereo partly drawn) [Example 88, 1-[1-(2,2-Dimethyl-propionyl)-piperidin-3-yl]-3-[(3S,3aR,6S,6aS)-6-(2-methyl-pyridin-3-yloxy)-hexahydro-furo[3,2-b]furan-3-yl]-urea]	53 nM
O=C(NC1CCCCC1)N[C@H]1CO[C@H]2[C@@H]1OC[C@@H]2C#Cc1ccc2c(c1)OCO2 [Example 281, 1-((3S,3aR,6S,6aR)-6-benzo[1,3]dioxol-5-ylethynyl-hexahydro-furo[3,2-b]furan-3-yl)-3-cyclohexyl-urea]	75 nM
Cc1csc(CNC(=O)N[C@H]2CO[C@H]3[C@@H]2OC[C@@H]3Oc2cccnc2C)n1 [Example 199, 1-[(3S,3aR,6S,6aS)-6-(2-Methyl-pyridin-3-yloxy)-hexahydro-furo[3,2-b]furan-3-yl]-3-(4-methyl-thiazol-2-ylmethyl)-urea]	2070 nM
Cc1cnc(CNC(=O)N[C@H]2CO[C@H]3[C@@H]2OC[C@@H]3Oc2cccnc2C)cn1 [Example 190, 1-(5-Methyl-pyrazin-2-ylmethyl)-3-[(3S,3aR,6S,6aS)-6-(2-methyl-pyridin-3-yloxy)-hexahydro-furo[3,2-b]furan-3-yl]-urea]	475 nM
O=C(NCCc1ccccc1)N[C@H]1CO[C@H]2[C@@H]1OC[C@@H]2C#Cc1ccsc1 [Example 314, 1-Phenethyl-3-((3S,3aR,6S,-6aR)-6-thiophen-3-ylethynyl-hexahydro-furo[3,2-b]furan-3-yl)-urea]	33 nM
O=C(NCCc1cccs1)N[C@H]1CO[C@@H]2[C@@H](CCc3ccccc3)CO[C@@H]21 [Example 370, 1-((3S,3aR,6S,6aR)-6-Phenethyl-hexahydro-furo[3,2-b]furan-3-yl)-3-(2-thiophen-2-yl-ethyl)-urea]	43 nM
O=C(NC1CCCCC1)N[C@H]1CO[C@H]2[C@@H]1OC[C@H]2O [Example 1, 1-cyclohexyl-3-((3S,3aR,6R,6aR)-6-hydroxy-hexahydro-furo[3,2-b]furan-3-yl)-urea]	305 nM
O=C(NCCc1cccs1)N[C@H]1CO[C@H]2[C@@H]1OC[C@@H]2/C=C\c1ccccc1 [Example 330, 1-[(3S,3aR,6S,6aR)-6-((Z)-Styryl)-hexahydro-furo[3,2-b]furan-3-yl]-3-(2-thiophen-2-yl-ethyl)-urea]	69 nM
CCOC(=O)CC[C@H]1CO[C@H]2[C@@H]1OC[C@@H]2NC(=O)NC1CCCCC1 [Example 376, 3-[(3S,3aR,6S,6aR)-6-(3-Cyclohexyl-ureido)-hexahydro-furo[3,2-b]furan-3-yl]-propionic acid ethyl ester]	26 nM
O=C(Nc1cccc(C(F)(F)F)c1)N[C@H]1CO[C@H]2[C@@H]1OC[C@@H]2/C=C\c1ccccc1 [Example 333, 1-[(3S,3aR,6S,6aR)-6-((Z)-Styryl)-hexahydro-furo[3,2-b]furan-3-yl]-3-(3-trifluoromethyl-phenyl)-urea]	44 nM
Cc1cnc(S[C@H]2CO[C@H]3[C@@H]2OC[C@@H]3NC(=O)NC2CCCCC2)nc1 [Example 50, 1-Cyclohexyl-3-[(3S,3aR,6S,6aS)-6-(5-methyl-pyrimidin-2-ylsulfanyl)-hexahydro-furo[3,2-b]furan-3-yl]-urea; hydrochloride]	10 nM
Cc1cccc(CNC(=O)N[C@H]2CO[C@H]3[C@@H]2OC[C@@H]3/C=C\c2ccsc2)c1 [Example 339, 1-(3-Methyl-benzyl)-3-[(3S,3aR,6S,6aR)-6-((Z)-2-thiophen-3-yl-vinyl)-hexahydro-furo[3,2-b]furan-3-yl]-urea]	418 nM
Cc1ncccc1O[C@H]1CO[C@H]2[C@@H]1OC[C@@H]2NC(=O)NCC1C[C@@H]2CC[C@H]1O2 (stereo partly drawn) [Example 239, 1-[(3S,3aR,6S,6aS)-6-(2-Methyl-pyridin-3-yloxy)-hexahydro-furo[3,2-b]furan-3-yl]-3-[(1R,4S)-1-(7-oxa-bicyclo[2.2.1]hept-2-yl)methyl]-urea]	78 nM
O=C(NCCc1ccccc1)N[C@H]1CO[C@H]2[C@@H]1OC[C@@H]2/C=C\c1ccsc1 [Example 344, 1-Phenethyl-3-[(3S,3aR,6S,6aR)-6-((Z)-2-thiophen-3-yl-vinyl)-hexa-hydro-furo[3,2-b]furan-3-yl]-urea]	42 nM
Cc1cccc(NC(=O)NC2COC3C(CCc4ccccc4)COC23)c1 [Example 357, 1-[(3S,3aR,6R)-6-((S)-Phenethyl)-hexahydro-furo[3,2-b]furan-3-yl]-3-m-tolyl-urea]	84 nM

Now from value to compound:

IC50	SMILES
< 1 nM	O=C(NC1CCCCC1)N[C@H]1CO[C@H]2[C@@H]1OC[C@@H]2Sc1ccc(F)cc1 [Example 15, 1-Cyclohexyl-3-[(3S,3aR,6S,6aS)-6-(4-fluoro-phenylsulfanyl)-hexahydro-furo[3,2-b]furan-3-yl]-urea]
27 nM	O=C(NC1CCCc2ccccc21)N[C@H]1CO[C@H]2[C@@H]1OC[C@@H]2Oc1ccc(F)cc1 (stereo partly drawn) [Example 158, 1-[(3S,3aR,6S,6aS)-6-(4-Fluoro-phenoxy)-hexahydro-furo[3,2-b]furan-3-yl]-3-(1,2,3,4-tetrahydro-naphthalen-1-yl)-urea]
5 nM	N#CCc1cccc(O[C@H]2CO[C@H]3[C@@H]2OC[C@@H]3NC(=O)NC2CCCCC2)c1 [Example 117, 1-[(3S,3aR,6S,6aS)-6-(3-Cyano-methyl-phenoxy)-hexahydro-furo-[3,2-b]furan-3-yl]-3-cyclohexyl-urea]
3 nM	COC(=O)c1ccc2cc(O[C@H]3CO[C@H]4[C@@H]3OC[C@@H]4NC(=O)NC3CCCCC3)ccc2c1 [Example 148, 6-[(3S,3aS,6S,6aR)-6-(3-Cyclohexyl-ureido)-hexahydro-furo[3,2-b]furan-3-yloxy]-naphthalene-2-carboxylic acid methyl ester]
487 nM	O=C(N[C@H]1CO[C@H]2[C@@H]1OC[C@@H]2Oc1ccc(F)cc1)N[C@@H]1CCCC[C@H]1OCc1ccccc1 [Example 164, 1-((1R,2R)-2-Benzyloxy-cyclohexyl)-3-[(3S,3aR,6S,6aS)-6-(4-fluoro-phenoxy)-hexahydro-furo[3,2-b]furan-3-yl]-urea]
3 nM	CC(=O)c1cccc(O[C@H]2CO[C@H]3[C@@H]2OC[C@@H]3NC(=O)NC2CCCCC2)c1 [Example 106, 1-[(3S,3aR,6S,6aS)-6-(3-Acetyl-phenoxy)-hexahydro-furo[3,2-b]furan-3-yl]-3-cyclohexyl-urea]
140 nM	O=C(NCc1ccc(F)cc1)NC1COC2C(CCc3ccccc3)COC12 [Example 356, 1-(4-Fluoro-benzyl)-3-[(3S,3aR,6R)-6-((S)-phenethyl)-hexahydro-furo[3,2-b]furan-3-yl]-urea]
4 nM	O=C(NC1CCCCC1)N[C@H]1CO[C@H]2[C@@H]1OC[C@@H]2Oc1ccc(C(F)(F)F)cc1 [Example 101, 1-Cyclohexyl-3-[(3S,3aR,6S,6aS)-6-(4-trifluoromethyl-phenoxy)-hexa-hydro-furo[3,2-b]furan-3-yl]-urea]
2 nM	Cc1ccc(O[C@H]2CO[C@H]3[C@@H]2OC[C@@H]3NC(=O)NC2CCCCC2)c(C)n1 [Example 34, 1-Cyclohexyl-3-[(3S,3aR,6S,6aS)-6-(2,6-dimethyl-pyridin-3-yloxy)-hexahydro-furo[3,2-b]furan-3-yl]-urea]
5 nM	Cc1ncccc1O[C@H]1CO[C@H]2[C@@H]1OC[C@@H]2NC(=O)NC1CCCCC1C (stereo partly drawn) [Example 259, 1-(2-Methyl-cyclohexyl)-3-[(3S,3aR,6S,6aS)-6-(2-methyl-pyridin-3-yloxy)-hexahydro-furo[3,2-b]furan-3-yl]-urea]
3 nM	O=C(NC1CCCCC1)N[C@H]1CO[C@H]2[C@@H]1OC[C@@H]2Oc1cc(Cl)cc(Cl)c1 [Example 31, 1-Cyclohexyl-3-[(3S,3aR,6S,6aS)-6-(3,5-dichloro-phenoxy)-hexahydro-furo[3,2-b]furan-3-yl]-urea]
16 nM	Cc1ncccc1O[C@H]1CO[C@H]2[C@@H]1OC[C@@H]2NC(=O)NC1CCCCC1(C)C (stereo partly drawn) [Example 270, 1-(2,2-Dimethyl-cyclohexyl)-3-[(3S,3aR,6S,6aS)-6-(2-methyl-pyridin-3-yloxy)-hexahydro-furo[3,2-b]furan-3-yl]-urea]
71 nM	COc1cc(NC(=O)N[C@H]2CO[C@@H]3[C@@H]2OC[C@H]3C#Cc2ccccc2)cc(OC)c1 [Example 284, 1-(3,5-Dimethoxy-phenyl)-3-[(3S,3aR,6R)-6-((S)-phenylethynyl)-hexahydro-furo[3,2-b]furan-3-yl]-urea]
2 nM	Cc1nc(-c2ccccc2O[C@H]2CO[C@H]3[C@@H]2OC[C@@H]3NC(=O)NC2CCCCC2)cs1 [Example 20, 1-Cyclohexyl-3-{(3S,3aR,6S,6aS)-6-[2-(2-methyl-thiazol-4-yl)-phenoxy]-hexahydro-furo[3,2-b]furan-3-yl}-urea]
29 nM	Cc1ncccc1O[C@H]1CO[C@H]2[C@@H]1OC[C@@H]2NC(=O)NC(C)(C)Cc1ccc(F)cc1 [Example 185, 1-[2-(4-Fluoro-phenyl)-1,1-dimethyl-ethyl]-3-[(3S,3aR,6S,6aS)-6-(2-methyl-pyridin-3-yloxy)-hexahydro-furo[3,2-b]furan-3-yl]-urea]
4 nM	CC1(C)CC(=O)c2cc(O[C@H]3CO[C@H]4[C@@H]3OC[C@@H]4NC(=O)NC3CCCCC3)ccc2O1 [Example 114, 1-Cyclohexyl-3-[(3S,3aR,6S,6aS)-6-(2,2-dimethyl-4-oxo-chroman-6-yloxy)-hexahydro-furo[3,2-b]furan-3-yl]-urea]
